Counter-ions that a name gives are not always drawn. Like-named read-outs stand apart in the source and are kept apart here.
Assays:
[1] = test system: LASV MG; assay: microbe, parasite or virus in culture; format: cell-based, Lassa virus (LASV); details: for inhibition at 5 µM: Huh-7, read-out: inhibition of LASV MG activity (rescreening); for inhibition of LASV MG activity (rescreening): 5 µM
[2] = test system: JUNV MG; assay: microbe, parasite or virus in culture; format: cell-based, Junin virus (JUNV)
[3] = test system: JUNV (Candid #1 strain); assay: microbe, parasite or virus in culture; format: cell-based, Junin virus (JUNV)
[4] = test system: LCMV (rLCMV.Arm); assay: microbe, parasite or virus in culture; format: cell-based, lymphocytic choriomeningitis virus (LCMV)
[5] = in vitro; details: human
[6] = in vitro; details: human; remark: listed apart in the source
[7] = test system: Huh-7 cells; details: 5 µM
[8] = test system: A549 cells
[9] = test system: A549 cells; remark: listed apart in the source
[10] = test system: LCMV MG; format: cell-based, lymphocytic choriomeningitis virus (LCMV); details: 5 µM
[11] = in vitro; details: human; remark: listed apart in the source
[12] = in vitro; details: human; remark: listed apart in the source
[13] = Mammarenavirus lassaense, Huh-7
[14] = Mammarenavirus juninense, Huh-7
[15] = Mammarenavirus juninense, A549, 48 h
[16] = Mammarenavirus choriomeningitidis, A549, 24 h

SMILES	IC50 [1, 13] [nM]	IC50 [2, 14] [nM]	IC50 [3, 15] [µM]	IC50 [4, 16] [µM]	CC50 [5] [µM]	IC50 ([1]; read-out: IC50) [nM]	IC50 ([2]; read-out: IC50) [nM]	IC50 ([3]; read-out: IC50) [µM]	IC50 ([4]; read-out: IC50) [µM]	CC50 [8] [µM]	CC50 [9] [µM]	further results
CN(C)CCN1C(=O)c2cccc3cc(N)cc(c23)C1=O [amonafide]	2890	2900	5.75	10	≥ 40							
CCN(CC)CCCC(C)Nc1c2ccc(Cl)cc2nc2ccc(OC)cc12 (stereo not shown) [quinacrine dihydrochloride]	1670	1510	7.33									inhibition at 5 µM ([1]; Mammarenavirus lassaense): ≥ 90%; viability at 5 µM [6]: > 70%
CC(=O)[C@]1(O)Cc2c(O)c3c(c(O)c2[C@@H](O[C@H]2C[C@H](N)[C@H](O)[C@H](C)O2)C1)C(=O)c1ccccc1C3=O [idarubicin hydrochloride]	60	120	2.56	0.59	0.79							
CCN(CC)CCCC(C)Nc1c2ccc(Cl)cc2nc2ccc(OC)cc12 (stereo not shown) [QDD, quinacrine dihydrochloride dihydrate]												IC50 [1]: 1280 nM; inhibition of LASV MG activity (rescreening) [1]: at least 90%; IC50 [2]: 1460 nM; IC50 [3]: 4.66 µM; cell viability (rescreening) ([7]; human): > 70%; CC50 ([8]; human): 27.9 µM
CN[C@H]1CN(c2ccc3c(=O)c(C(=O)O)cn(-c4nccs4)c3n2)C[C@@H]1OC [voreloxin (SNS 595) hydrochloride]						1820	1150	5.23	8.5	13.3	≥ 40	
NCCNc1ccc(NCCN)c2c1C(=O)c1ccncc1C2=O.O=C(O)/C=C\C(=O)O.O=C(O)/C=C\C(=O)O [pixantrone maleate]						1010	1810	3.66	4.75	30.3	≥ 40	inhibition of LASV MG activity (rescreening) [1]: at least 90%; cell viability (rescreening) [7]: > 70%
Cc1c2ccncc2c(C)c2c1[nH]c1ccccc12.Cl [ellipticine hydrochloride]						760	760	1.73	1.5	32.5	≥ 20	inhibition of LCMV MG activity [10]: 95%
Nc1ccc2cc3ccc(N)cc3nc2c1 [proflavine]	1040	1360	2.45									inhibition at 5 µM ([1]; Mammarenavirus lassaense): ≥ 90%; viability at 5 µM [6]: > 70%
COc1c(C)c2c(c(O)c1C/C=C(\C)CCC(=O)O)C(=O)OC2 [MPA, mycophenolic acid]	370	420	0.97									
NC(=O)c1ncn([C@@H]2O[C@H](CO)[C@@H](O)[C@H]2O)n1 [ribavirin, Ribavirin]	15400	38200	45.4	20.2	≥ 100							CC50 ([6]; CC50): ≥ 200 µM; CC50 [11]: ≥ 200 µM; CC50 [12]: ≥ 200 µM

— paper PMC9866940 (Viruses, 2022)
